Test [1] deals with T1, flavonoid 7-O-glucuronosyltransferase VpF7GAT (Veronica persica, UniProt C0STS8). To be noted: glycosyl acceptor substrate apigenin; activity of UDP-glucuronic acid made 100%. As to the method:
(§1) Standard reaction conditions are as follows. […] The mixture was reacted at 30° C. for 1 minute. The reaction was then terminated by adding 50 μl of CH3CN containing 0.5% TFA. The product was analyzed by reversed phase HPLC (LC-2010 System, Shimadzu Corporation).
(§2) The conditions for HPLC are as follows. Develosil C30-UG-5 column (4.6 mm×150 mm, Nomura Chemical) was used with a column oven at 40° C., and the moving phase A (0.1% TFA/H2O) and the moving phase B (0.1% TFA/90% CH3CN) were used. The conditions for elution include a linear density gradient (B20%→B70%) for 15 minutes, then retention with B70% for further 1 minute and again reverting to B20%, followed by equilibration for 20 minutes. HPLC was performed at the flow of 1 ml/min. Detection was performed at 280 and 360 nm using a SPD-M10A Photodiode Array Detector (Shimadzu Corporation).

In test [2] the target is T1, flavonoid 7-O-glucuronosyltransferase VpF7GAT. The test is described as follows: Selectivity of VpF7GAT to glycosyl acceptor substrates (glycosyl donor: UDP-glucuronic acid). The class given is biochemical. To be noted: for activity of VpF7GAT with the glycosyl acceptor substrate (in words, summary in the description): compared to other glycosyl acceptor substrates; for relative activity of glycosyl acceptor substrate / glucuronosyltransferase activity (in words): glycosyl donor UDP-glucuronic acid; for relative activity of glycosyl acceptor substrate: activity to apigenin made 100%, FIG. 3; for glucuronosyltransferase activity (in words): reaction conditions for this enzyme. On the procedure: as §1, §2

Here are results for 15 molecules from patent publication US20110219476A1, “GLUCURONYL TRANSFERASE AND POLYNUCLEOTIDE ENCODING THE SAME” (priority 2008, published 2011).

T1 sequence (C0STS8 entry or part of it): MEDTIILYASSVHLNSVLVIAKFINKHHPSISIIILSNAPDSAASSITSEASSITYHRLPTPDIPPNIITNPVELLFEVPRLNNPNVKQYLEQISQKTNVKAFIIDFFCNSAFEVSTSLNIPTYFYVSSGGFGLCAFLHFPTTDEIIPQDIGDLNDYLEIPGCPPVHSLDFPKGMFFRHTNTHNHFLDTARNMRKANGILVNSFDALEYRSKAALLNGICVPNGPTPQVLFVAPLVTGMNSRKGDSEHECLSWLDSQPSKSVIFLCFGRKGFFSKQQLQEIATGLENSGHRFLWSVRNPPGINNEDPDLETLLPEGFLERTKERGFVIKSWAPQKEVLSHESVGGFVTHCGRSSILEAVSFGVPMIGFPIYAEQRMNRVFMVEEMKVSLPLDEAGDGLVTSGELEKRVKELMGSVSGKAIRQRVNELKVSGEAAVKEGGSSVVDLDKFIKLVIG

For `O=C(O)[C@H]1O[C@H](OP(=O)(O)OP(=O)(O)OC[C@H]2O[C@@H](n3ccc(=O)[nH]c3=O)[C@H](O)[C@@H]2O)[C@H](O)[C@@H](O)[C@@H]1O` [UDP-glucuronic acid], in test [1], the “relative activity of UDP glycosyl donor” value was determined as 100%. Regarding `O=c1cc(-c2ccc(O)cc2)oc2cc(O)cc(O)c12` [apigenin], in test [2], the “activity of VpF7GAT with the glycosyl acceptor substrate (in words, summary in the description)” value (shortened to “activity of VpF7GAT”) is “strong” and the “relative activity of glycosyl acceptor substrate” value is 100%. `O=c1cc(-c2ccccc2)oc2cc(O)c(O)c(O)c12` [baicalein]: in test [2], the “activity of VpF7GAT” value is reported as “shows an activity” and the “relative activity of glycosyl acceptor substrate” value is 13.1%.

In the case of `COc1cc(-c2cc(=O)c3c(O)cc(O)cc3o2)ccc1O` [chrysoeriol], in test [2], the “activity of VpF7GAT” value is given as “strong” and the “relative activity of glycosyl acceptor substrate” value amounted to 34.0%. For the molecule `COc1ccc(-c2cc(=O)c3c(O)cc(O)cc3o2)cc1O` [diosmetin], in test [2], the “activity of VpF7GAT” value is on record as “strong” and the “relative activity of glycosyl acceptor substrate” value is given as 12.9%.

Take `O=c1ccc2cc(O)c(O)cc2o1` [esculetin]: in test [2], the “glucuronosyltransferase activity (in words)” value is on record as “not observed”.

For `O=c1c(-c2ccc(O)cc2)coc2cc(O)cc(O)c12` [genistein], the “glucuronosyltransferase activity (in words)” value in test [2] is “not observed”. For `O=c1cc(-c2ccc(O)cc2)oc2cc(O)c([C@@H]3O[C@H](CO)[C@@H](O)[C@H](O)[C@H]3O)c(O)c12` [isovitexin], the “glucuronosyltransferase activity (in words)” value in test [2] was “not observed”. In the case of `O=c1c(O)c(-c2ccc(O)cc2)oc2cc(O)cc(O)c12` [kaempferol], in test [2], the “activity of VpF7GAT” value is reported as “strong” and the “relative activity of glycosyl acceptor substrate” value amounted to 13.3%. As for `O=C1C[C@@H](c2ccc(O)cc2)Oc2cc(O)cc(O)c21` [naringenin], in test [2], the “activity of VpF7GAT” value is recorded as “strong” and the “relative activity of glycosyl acceptor substrate” value came to 18.0%.

Turning to `O=c1cc(-c2ccc(O)c(O)c2)oc2c([C@@H]3O[C@H](CO)[C@@H](O)[C@H](O)[C@H]3O)c(O)cc(O)c12` [orientin], the “glucuronosyltransferase activity (in words)” value in test [2] is listed as “not observed”. As for `O=c1c(O)c(-c2ccc(O)c(O)c2)oc2cc(O)cc(O)c12` [quercetin], in test [2], the “activity of VpF7GAT” value was “shows an activity” and the “relative activity of glycosyl acceptor substrate” value turned out to be 1.0%.

In the case of `Oc1ccc(C=Cc2cc(O)cc(O)c2)cc1` [resveratrol], in test [2], the “glucuronosyltransferase activity (in words)” value is “not observed”. Regarding `O=c1cc(-c2ccc(O)cc2)oc2cc(O)c(O)c(O)c12` [scutellarein], the “relative activity of glycosyl acceptor substrate” value in test [2] turned out to be 88.3%.

With `Oc1cc2c(cc1[C@H]1OC[C@H]3[C@@H]1CO[C@@H]3c1ccc3c(c1)OCO3)OCO2` [sesaminol], the “glucuronosyltransferase activity (in words)” value in test [2] was “not observed”.
